This is an account of results in patent publication US20210253598A1, “ARYL ANNULATED MACROCYCLIC INDOLE DERIVATIVES” (priority 2017, published 2021).

Values joined by “and” are separate entries in the source; they are usually repeats but may differ in a detail not shown here. Equal values may be shown once. Where a name gives a salt, the structure may show the parent alone. Read-outs that look alike come from different tables or passages of the source.

Data set [1] relates to SUDHL10. In words: Induction of cytotoxicity in SUDHL10 cells, CellTiter-Glo (Assay 6). The conditions noted are these: SUDHL10, 5 hours incubation, median, read-out: Cytotox SUDHL10 [M] (median). The format is cell-based. The method in brief:
(§1)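 Viability of treated lymphoma cells is measured by luminescence with CellTiter-Glo reagent, incubated 15 minutes at room temperature. Compound exposure lasts 5 hours at 37° C.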

Another data set deals with AMO-1. Put plainly: Anti-proliferative effect in AMO-1 cells, CellTiter-Glo (Assay 7). In kind it is cell-based. The method in brief:
(§2)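 CellTiter-Glo luminescence after 72 h compound exposure at 37 °C; a parallel time-zero plate was read the same way. IC50 derived relative to day 0 signal and DMSO control.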
A general note: In ATP-based viability assays light output follows the ATP content of the culture.

Data set [2] relates to SUDHL10. Put plainly: Induction of caspase-3/7 activity in SUDHL10 cells (Assay 4). The format is cell-based. The method in brief: (§3)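 DLBCL lines SUDHL5 and SUDHL10 were treated with compound for 3 h at 37 °C. Caspase-3/7 activity was then read by Caspase-Glo 3/7 luminescence after 1 h at 37 °C. Medium-only background was subtracted and values were normalized to the mean of DMSO-treated cells.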

Data set [3] deals with SUDHL5. Put plainly: Anti-proliferative effect in SUDHL5 cells, CellTiter-Glo (Assay 7). In kind it is cell-based. The method in brief:
as §2

A further data set has as its target BCL-2 (Homo sapiens, UniProt P10415). Put plainly: Protein-protein interaction assay BCL-2/Bad BH3 peptide, TR-FRET (BCL-2 assay, Assay 3). In kind it is binding. To be noted: His-BCL-2 / Bad BH3 peptide, median. A general note: Time-resolved FRET reads energy transfer from a long-lived donor to a nearby acceptor.
Data set [4] has as its system SUDHL5. In words: Induction of cytotoxicity in SUDHL5 cells, CellTiter-Glo (Assay 6). In kind it is cell-based. The conditions noted are these: SUDHL5, 5 hours incubation, median, read-out: Cytotox SUDHL5 [M] (median). In outline: as §1
The test system of data set [5] is SUDHL5. In words: Induction of caspase-3/7 activity in SUDHL5 cells (Assay 4). The format is cell-based. The method in brief:
as §3

The mark [6] stands for this setting: AMO-1, 72 hours incubation, CellTiter-Glo; several values per example; read-out: Antiproli AMO-1.
Where [7] appears, read: Homo sapiens, AMO1, 72 h, AMO-1, 72 hours incubation, CellTiter-Glo; several values per example; read-out: Antiproli AMO-1.
[8] abbreviates: Homo sapiens, SU-DHL10, 3 h, SUDHL10, 3 hours treatment, Caspase-Glo 3/7, median, read-out: Caspase SUDHL10 [M] (median).
The mark [9] stands for this setting: Homo sapiens, SU-DHL-5, 72 h, SUDHL5, 72 hours incubation, CellTiter-Glo, median, read-out: Antiproli SUDHL5 [M] (median).
The mark [10] stands for this setting: Homo sapiens, SU-DHL-5, 3 h, SUDHL5, 3 hours treatment, Caspase-Glo 3/7, median, read-out: Caspase SUDHL5 [M] (median).
The mark [11] stands for this setting: SUDHL10, 3 hours treatment, Caspase-Glo 3/7, median, read-out: Caspase SUDHL10 [M] (median).
Where [12] appears, read: SUDHL5, 72 hours incubation, CellTiter-Glo, median, read-out: Antiproli SUDHL5 [M] (median).
The mark [13] stands for this setting: SUDHL5, 3 hours treatment, Caspase-Glo 3/7, median, read-out: Caspase SUDHL5 [M] (median).
Setting [14] is: read-out: Antiproli AMO-1; AMO-1, 72 hours incubation, CellTiter-Glo; several values per example.
Where [15] appears, read: read-out: Caspase SUDHL10 [M] (median), SUDHL10, 3 hours treatment, Caspase-Glo 3/7.
The mark [16] stands for this setting: read-out: Antiproli SUDHL5 [M] (median), SUDHL5, 72 hours incubation, CellTiter-Glo.

BCL-2, sequence (P10415 1-211): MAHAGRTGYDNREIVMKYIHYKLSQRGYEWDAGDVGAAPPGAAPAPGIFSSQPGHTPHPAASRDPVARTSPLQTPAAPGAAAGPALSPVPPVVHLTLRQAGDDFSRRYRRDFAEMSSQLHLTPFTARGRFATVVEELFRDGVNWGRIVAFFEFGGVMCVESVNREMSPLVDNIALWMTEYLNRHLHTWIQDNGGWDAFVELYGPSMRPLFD
Description for BCL-2: The dose-dependent inhibition by the compounds described in this invention of the interaction between BCL-2 and the BH3 domain of Bad (both human) was determined using a steady state binding competition assay with time-resolved fluorescence energy transfer (TR-FRET) readout. For that purpose BCL-2 (amino acids 1-211, C-terminal fused to a hexahistidine (6×His) tag (SEQ ID 5) and a synthetic Bad BH3-derived peptide of sequence Biotin-PEG2-PEG2-[sequence]-Nle-[sequence]-amide (SEQ ID 4) served as protein receptor and tracer ligand respectively. The recombinant BCL-2 protein (expressed in E. coli) was purchased from BPS Bioscience (San Diego, Calif., USA). The Bad BH3-derived peptide can be obtained from e.g. Biosyntan (Berlin, Germany).
For that, 100-fold concentrated DMSO solutions were prepared by serial dilutions (1:3.4) of a 2 mM stock solution in a clear, 384-well microtiter plate (Greiner Bio-One, Frickenhausen, Germany). From there, 50 nl were transferred in a dark test plate (Greiner Bio-One, Frickenhausen, Germany). The assay was initiated by addition of 2 μl of a 2,5-fold concentrated His-BCL-2 solution (usually for a 1 nM end concentration in 5 μl reaction volume) in aqueous assay buffer [50 mM Tris/HCl pH 7, 100 mM sodium chloride (NaCl), 50 mM potassium fluoride (KF), 0.005% Tween-20, 2 mM DTT, 0.1% bovine gamma globulin (BGG)] to the compounds in the assay plate. This was followed by a 10-minute incubation step at 22° C. for pre-equilibration of the putative complex between His-BCL-2 and the compounds.
The mixture was incubated in the dark for one hour at 22° C. and then overnight at 4° C. The formation of BCL-2/Bad complexes was determined by measuring the resonance energy transfer of the anti-His-Eu-cryptate antibody to the streptavidin-XL665 present in the reaction. For that purpose, the fluorescence emission at 620 nm and 665 nm after excitation at 330-350 nm was measured in a TR-FRET measuring instrument, for instance a Rubystar or a Pherastar (both from BMG Lab Technologies, Offenburg, Germany) or a Viewlux (Perkin-Elmer). The ratio of the emission at 665 nm and at 622 nm was used as indicator of the amount of BCL-2/Bad complexes present.
The resulting data (ratio) were normalized, taking 0% inhibition as the mean value of control measurements (usually 32 data points) where all reagents were included. In this case 50 nl DMSO were used instead of compounds. […] IC50 values were determined by regression analysis based on a 4 parameter equation (minimum, maximum, IC50, Hill; Y=Max+(Min−Max)/(1+(X/IC50)^Hill) using the Screener Software (Genedata).

Regarding `Cc1c2c(nn1C)COCc1ccccc1Cn1c(C(=O)O)c(CCCOc3cccc4cc(F)ccc34)c3ccc(F)c-2c31` (single isomer, unassigned; enantiomer 1) [Example 65, (−)-3-fluoro-17-{3-[(6-fluoronaphthalen-1-yl)oxy]propyl}-4,5-dimethyl-5,7,9,14-tetrahydroindolo[7,1-fg]pyrazolo[3,4-d][2,8]benzoxazacycloundecine-16-carboxylic acid-N-ethylethanamine Salt (Enantiomer 1)], the IC50 came out at 2.1e-06 M with SUDHL10 [1]; 1750 nM in the data set on AMO-1 (setting [6]); 2000 nM in the data set with AMO-1 (setting [7]); 1.1e-06 M in the data set on SUDHL5 [3] (setting [9]); 16900 nM against BCL-2; 1e-06 M with SUDHL5 [4]. Besides, the values for the EC50 in the data set on SUDHL10 [2] (setting [8]) and in the data set on SUDHL5 [5] (setting [10]) were 2.1e-06 M and 8.1e-07 M, respectively.

Take `CCc1nn(CCN2CCOCC2)c2c1-c1c(Cl)ccc3c(CCCOc4cccc5cc(F)ccc45)c(C(=O)O)n(c13)Cc1ccccc1COC2` (single isomer, unassigned; enantiomer 1) [Example 52, (−)-3-Chloro-4-ethyl-17-{3-[(6-fluoronaphthalen-1-yl)oxy]propyl}-6-[2-(morpholin-4-yl)ethyl]-6,7,9,14-tetrahydroindolo[7,1-fg]pyrazolo[3,4-d][2,8]benzoxazacycloundecine-16-carboxylic Acid (Enantiomer 1)]: the IC50 in the data set with SUDHL10 [1] was 8.8e-07 M; with AMO-1 (setting [6]), 2270 nM; with SUDHL5 [3] (setting [12]), 5.7e-07 M; against BCL-2, above 20000 nM; in the data set with SUDHL5 [4], 5.2e-07 M. The results for the EC50 in the data set on SUDHL10 [2] (setting [11]) and in the data set with SUDHL5 [5] (setting [13]) were 7.1e-07 M and 4.9e-07 M, respectively.

With `CCNCC.Cc1c2c(nn1C)COCc1ncccc1Cn1c(C(=O)O)c(CCCOc3cccc4ccccc34)c3ccc(Cl)c-2c31` (single isomer, unassigned; enantiomer 1) [Example 43, 3-Chloro-4,5-dimethyl-17-[3-(naphthalen-1-yloxy)propyl]-5,7,9,14-tetrahydropyrazolo-[4′,3′:9,10]pyrido[2′,3′:3,4][1,6]oxazacycloundecino[8,7,6-hi]indole-16-carboxylic acid-N-ethylethanamine Salt (Enantiomer 1)], the IC50 in the data set with SUDHL10 [1] was 2.9e-06 M; in the data set on AMO-1 (setting [6]), 5160 nM and 7470 nM; in the data set with SUDHL5 [3] (setting [12]), 1.2e-06 M; on BCL-2 it was above 20000 nM; in the data set on SUDHL5 [4] it was 1.4e-06 M. In addition, the EC50 was found to be 3.7e-06 M in the data set on SUDHL10 [2] (setting [11]) and 1.2e-06 M in the data set on SUDHL5 [5] (setting [13]).

For the compound `CCc1nn(C)c2c1-c1c(Cl)ccc3c(CCCOc4cccc5cc(F)ccc45)c(C(=O)O)n(c13)Cc1ccccc1COC2` (single isomer, unassigned; enantiomer 1) [Example 58, (+)-3-Chloro-4-ethyl-17-{3-[(6-fluoronaphthalen-1-yl)oxy]propyl}-6-methyl-6,7,9,14-tetrahydro-indolo[7,1-fg]pyrazolo[3,4-d][2,8]benzoxazacycloundecine-16-carboxylic acid-N-ethylethanamine Salt (Enantiomer 1)], the IC50 worked out at 2.6e-06 M in the data set with SUDHL10 [1]; 1610 nM in the data set with AMO-1 (setting [6]); 1.2e-06 M with SUDHL5 [3] (setting [12]); 10600 nM on BCL-2; 8.1e-07 M with SUDHL5 [4]. Also, the values for the EC50 in the data set with SUDHL10 [2] (setting [11]) and in the data set on SUDHL5 [5] (setting [13]) were 2.1e-06 M and 8e-07 M, respectively.

On to `Cc1c2c(nn1C)COCc1ccccc1Cn1c(C(=O)O)c(CCCOc3cccc4ccccc34)c3ccc(F)c-2c31` (single isomer, unassigned; enantiomer 1) [Example 68, (−)-3-Fluoro-4,5-dimethyl-17-{3-[(naphthalen-1-yl)oxy]propyl}-5,7,9,14-tetrahydroindolo[7,1-fg]pyrazolo[3,4-d][2,8]benzoxazacycloundecine-16-carboxylic acid-N-ethylethanamine Salt (Enantiomer 1)], for which the IC50 with SUDHL10 [1] was 4.6e-06 M; in the data set on AMO-1 (setting [14]), 4400 nM and 4890 nM; with SUDHL5 [3] (setting [16]), 1.4e-06 M; against BCL-2 it was above 20000 nM; in the data set on SUDHL5 [4] it was 1.9e-06 M. Further, the EC50 in the data set with SUDHL10 [2] (setting [15]) turned out to be 1.1e-05 M; with SUDHL5 [5] (read-out: Caspase SUDHL5 [M] (median), SUDHL5, 3 hours treatment, Caspase-Glo 3/7) it was 1.2e-06 M.

Regarding `Cc1c2c(nn1C)COCc1ccccc1Cn1c(C(=O)O)c(CCCOc3cccc4cc(F)ccc34)c3ccc(Cl)c-2c31` (single isomer, unassigned; enantiomer 1) [Example 49, (−)-3-Chloro-17-{3-[(6-fluoronaphthalen-1-yl)oxy]propyl}-4,5-dimethyl-5,7,9,14-tetrahydroindolo[7,1-fg]pyrazolo[3,4-d][2,8]benzoxazacycloundecine-16-carboxylic acid-N-ethylethanamine Salt (Enantiomer 1)], the IC50 with SUDHL10 [1] (Homo sapiens, SU-DHL10, 5 h) was 1.6e-06 M; with AMO-1 (setting [7]) it was 1920 nM; in the data set on SUDHL5 [3] (setting [9]) it was 1e-06 M; at BCL-2 it was at least 21800 nM; with SUDHL5 [4] (Homo sapiens, SU-DHL-5, 5 h), 8.8e-07 M. Also, the results for the EC50 in the data set on SUDHL10 [2] (setting [8]) and in the data set with SUDHL5 [5] (setting [10]) were 2.1e-06 M and 7.7e-07 M, respectively.

`CCc1c2c(nn1C)COCc1ccccc1Cn1c(C(=O)O)c(CCCOc3cccc4cc(F)ccc34)c3ccc(Cl)c-2c31` (single isomer, unassigned; enantiomer 1) [Example 55, (−)-3-Chloro-4-ethyl-17-{3-[(6-fluoronaphthalen-1-yl)oxy]propyl}-5-methyl-5,7,9,14-tetrahydro-indolo[7,1-fg]pyrazolo[3,4-d][2,8]benzoxazacycloundecine-16-carboxylic Acid N-ethylethanamine Salt (Enantiomer 1)]: the IC50 came out at 1.3e-06 M in the data set on SUDHL10 [1]; 1190 nM in the data set on AMO-1 (setting [14]); 1e-06 M with SUDHL5 [3] (setting [16]); 18000 nM against BCL-2; 6.4e-07 M in the data set on SUDHL5 [4]. The EC50 with SUDHL10 [2] (setting [15]) is 8.7e-07 M; in the data set on SUDHL5 [5] (Homo sapiens, SU-DHL-5, 3 h, read-out: Caspase SUDHL5 [M] (median), SUDHL5, 3 hours treatment, Caspase-Glo 3/7), 6.6e-07 M.
